# Assay results reported in patent US5292733A, “Cephalosporin compounds” (Lucky Limited, priority 1991, dated 1994).
# Columns and labels:
# Assay in all cases: Antibacterial activity MIC, two-fold agar dilution
# Assay type in all cases: cell-based
# [1] = test system: Escherichia coli ATCC 25922; settings: 37° C., 20 hours; for MIC: ATCC25922, Muller-Hinton agar
# How it was run: (§1)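 Each test compound is diluted two-fold stepwise into Muller-Hinton agar. A 2 μl inoculum (strain at 10^7 CFU/ml) is applied, and plates are kept at 37° C. for 20 hours to obtain the MIC.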
# [2] = test system: Escherichia coli ATCC 10536; settings: 37° C., 20 hours; for MIC: ATCC10536, Muller-Hinton agar
# How it was run: as §1
# [3] = test system: Pseudomonas aeruginosa ATCC 27853; settings: Pseudomonas aeruginosa ATCC 27853, Muller-Hinton agar, 37° C., 20 hours; for MIC: ATCC27853, read-out: Antibacterial Activity MIC
# How it was run: as §1
# [4] = test system: Proteus vulgaris ATCC 6059; settings: Proteus vulgaris ATCC 6059, Muller-Hinton agar, 37° C., 20 hours; for MIC: ATCC6059, read-out: Antibacterial Activity MIC
# How it was run: as §1
# [5] = test system: Staphylococcus aureus ATCC 6538p; settings: Staphylococcus aureus ATCC 6538p, Muller-Hinton agar, 37° C., 20 hours; for MIC: ATCC6538P, read-out: Antibacterial Activity MIC
# How it was run: as §1
# [6] = test system: Acinetobacter calcoaceticus ATCC 15473; settings: Acinetobacter calcoaceticus ATCC 15473, Muller-Hinton agar, 37° C., 20 hours; for MIC: ATCC15473, read-out: Antibacterial Activity MIC
# How it was run: as §1
# [7] = test system: Pseudomonas aeruginosa ATCC 25619; settings: Pseudomonas aeruginosa ATCC 25619, Muller-Hinton agar, 37° C., 20 hours; for MIC: ATCC25619, read-out: Antibacterial Activity MIC
# How it was run: as §1
# [8] = test system: Salmonella typhimurium ATCC 14028; settings: Salmonella typhimurium ATCC 14028, Muller-Hinton agar, 37° C., 20 hours; for MIC: Salmonella enterica, read-out: Antibacterial Activity MIC
# How it was run: as §1
# [9] = test system: Staphylococcus aureus ATCC 10537; settings: Staphylococcus aureus ATCC 10537, Muller-Hinton agar, 37° C., 20 hours; for MIC: ATCC10537, read-out: Antibacterial Activity MIC
# How it was run: as §1
# [10] = test system: Klebsiella pneumoniae ATCC 10031; settings: Klebsiella pneumoniae ATCC 10031, Muller-Hinton agar, 37° C., 20 hours; for MIC: ATCC10031, read-out: Antibacterial Activity MIC
# How it was run: as §1
# [11] = test system: Micrococcus luteus ATCC 9341; settings: Micrococcus luteus ATCC 9341, Muller-Hinton agar, 37° C., 20 hours; for MIC: ATCC9341, read-out: Antibacterial Activity MIC
# How it was run: as §1
# [12] = test system: Enterobacter cloacae ATCC 27508; settings: Enterobacter cloacae ATCC 27508, Muller-Hinton agar, 37° C., 20 hours; for MIC: ATCC27508, read-out: Antibacterial Activity MIC
# How it was run: as §1
# [13] = test system: Bacillus cereus ATCC 11778; settings: Bacillus cereus ATCC 11778, Muller-Hinton agar, 37° C., 20 hours; for MIC: ATCC11778, read-out: Antibacterial Activity MIC
# How it was run: as §1
# [14] = test system: Enterobacter aerogenes ATCC 29751; settings: Enterobacter aerogenes ATCC 29751, Muller-Hinton agar, 37° C., 20 hours; for MIC: Klebsiella aerogenes, ATCC29751, read-out: Antibacterial Activity MIC
# How it was run: as §1
# [15] = test system: Shigella sonnei ATCC 11060; settings: 37° C., 20 hours; for MIC: ATCC11060, Muller-Hinton agar
# How it was run: as §1
# [16] = test system: Providencia rettgeri ATCC 9250; settings: 37° C., 20 hours; for MIC: ATCC9250, Muller-Hinton agar
# How it was run: as §1
# [17] = test system: Morganella morganii ATCC 8076h; settings: Muller-Hinton agar, 37° C., 20 hours; for MIC: ATCC8076H
# How it was run: as §1
# [18] = test system: Staphylococcus epidermidis ATCC 12228; settings: Staphylococcus epidermidis ATCC 12228, Muller-Hinton agar, 37° C., 20 hours; for MIC: ATCC12228, read-out: Antibacterial Activity MIC
# How it was run: as §1
# [19] = test system: Proteus mirabilis ATCC 25933; settings: Proteus mirabilis ATCC 25933, Muller-Hinton agar, 37° C., 20 hours; for MIC: ATCC25933, read-out: Antibacterial Activity MIC
# How it was run: as §1
# [20] = test system: Serratia marcescens ATCC 27117; settings: Serratia marcescens ATCC 27117, Muller-Hinton agar, 37° C., 20 hours; for MIC: ATCC27117, read-out: Antibacterial Activity MIC
# How it was run: as §1
# [21] = test system: Citrobacter freundii ATCC 8090; settings: Citrobacter freundii ATCC 8090, Muller-Hinton agar, 37° C., 20 hours; for MIC: ATCC8090, read-out: Antibacterial Activity MIC
# How it was run: as §1
# [22] = test system: Streptococcus faecalis ATCC 29212; settings: Streptococcus faecalis ATCC 29212, Muller-Hinton agar, 37° C., 20 hours; for MIC: Enterococcus faecalis, ATCC29212, read-out: Antibacterial Activity MIC
# How it was run: as §1
# [23] = test system: Pseudomonas aeruginosa ATCC 10145; settings: Pseudomonas aeruginosa ATCC 10145, Muller-Hinton agar, 37° C., 20 hours; for MIC: ATCC10145, read-out: Antibacterial Activity MIC
# How it was run: as §1
# [24] = test system: Bacillus megaterium ATCC 9885; settings: Bacillus megaterium ATCC 9885, Muller-Hinton agar, 37° C., 20 hours; for MIC: Priestia megaterium, ATCC9885, read-out: Antibacterial Activity MIC
# How it was run: as §1
# [25] = test system: Shigella flexneri ATCC 11836; settings: 37° C., 20 hours; for MIC: ATCC11836, Muller-Hinton agar
# How it was run: as §1
compound,measurement,setting,value
"(6R,7R)-7-[(Z)-2-(2-aminothiazol-4-yl)-2-(2-propyn-1-oxyimino)acetamido]-3-(2,6-diamino-3-methylpyrimidinium-4-yl)thiomethyl-3-cephem-4-carboxylate [Compound I-9]",Antibacterial Activity MIC,[1]; Muller-Hinton agar,0.063 µg/mL
same,Antibacterial Activity MIC,[2]; Muller-Hinton agar,0.016 µg/mL
same,Antibacterial Activity MIC,[3],8 µg/mL
same,Antibacterial Activity MIC,[4],0.016 µg/mL
same,Antibacterial Activity MIC,[5],0.25 µg/mL
same,Antibacterial Activity MIC,[6],2 µg/mL
same,Antibacterial Activity MIC,[7],2 µg/mL
same,Antibacterial Activity MIC,[8],0.5 µg/mL
same,Antibacterial Activity MIC,[9],0.25 µg/mL
same,Antibacterial Activity MIC,[10],0.063 µg/mL
same,Antibacterial Activity MIC,[11],0.063 µg/mL
same,Antibacterial Activity MIC,[12],0.13 µg/mL
same,Antibacterial Activity MIC,[13],64 µg/mL
same,Antibacterial Activity MIC,[14],0.5 µg/mL
same,Antibacterial Activity MIC,[15]; Muller-Hinton agar,0.13 µg/mL
same,Antibacterial Activity MIC,[16]; Muller-Hinton agar,<= 0.008 μg/ml
same,Antibacterial Activity MIC,[17],<= 0.008 μg/ml
same,Antibacterial Activity MIC,[18],0.5 µg/mL
same,Antibacterial Activity MIC,[19],0.016 µg/mL
same,Antibacterial Activity MIC,[20],0.5 µg/mL
same,Antibacterial Activity MIC,[21],0.13 µg/mL
same,Antibacterial Activity MIC,[22],> 128 µg/mL
same,Antibacterial Activity MIC,[23],16 µg/mL
same,Antibacterial Activity MIC,[24],0.13 µg/mL
same,Antibacterial Activity MIC,[25]; Muller-Hinton agar,0.13 µg/mL
"CCO/N=C(\C(=O)N[C@@H]1C(=O)N2C(C(=O)[O-])=C(CSc3cc(N)[n+](C)c(N)n3)CS[C@H]12)c1nsc(N)n1 [Compound I-10, (6R,7R)-7-[(Z)-2-(5-amino-1,2,4-thiadiazol-3-yl)-2-(ethoxyimino)acetamido]-3-(2,6-diamino-1-methylpyrimidinium-4-yl)thiomethyl-3-cephem-4-carboxylate]",MIC,[1],0.25 µg/mL
same,MIC,[2],0.13 µg/mL
same,MIC,[3],1 µg/mL
same,MIC,[4],0.25 µg/mL
same,MIC,[5],0.5 µg/mL
same,MIC,[6],4 µg/mL
same,MIC,[7],0.5 µg/mL
same,MIC,[8],0.063 µg/mL
same,MIC,[9],0.5 µg/mL
same,MIC,[10],≤ 0.008 µg/mL
same,MIC,[11],0.016 µg/mL
same,MIC,[12],0.016 µg/mL
same,MIC,[13],128 µg/mL
same,MIC,[14],0.25 µg/mL
same,MIC,[15],0.25 µg/mL
same,MIC,[16],≤ 8 ng/mL
same,MIC,[17],0.016 µg/mL
same,MIC,[18],0.25 µg/mL
same,MIC,[19],0.25 µg/mL
same,MIC,[20],0.13 µg/mL
same,MIC,[21],0.13 µg/mL
same,MIC,[22],8 µg/mL
same,MIC,[23],1 µg/mL
same,MIC,[24],0.13 µg/mL
same,MIC,[25],0.031 µg/mL
"C#CCO/N=C(\C(=O)N[C@@H]1C(=O)N2C(C(=O)[O-])=C(CSc3cc(N)[n+](CC)c(N)n3)CS[C@H]12)c1csc(N)n1 [Compound I-15, (6R,7R)-7-[(Z)-2-(2-aminothiazol-4-yl)-2-(2-propyn-1-oxyimino)acetamido]-3-(2,6-diamino-1-ethylpyrimidinium-4-yl)thiomethyl-3-cephem-4-carboxylate]",MIC,[1],0.5 µg/mL
same,MIC,[2],0.25 µg/mL
same,MIC,[3],4 µg/mL
same,MIC,[4],1 µg/mL
same,MIC,[5],0.5 µg/mL
same,MIC,[6],8 µg/mL
same,MIC,[7],1 µg/mL
same,MIC,[8],0.5 µg/mL
same,MIC,[9],0.5 µg/mL
same,MIC,[10],0.016 µg/mL
same,MIC,[11],0.031 µg/mL
same,MIC,[12],0.031 µg/mL
same,MIC,[13],32 µg/mL
same,MIC,[14],1 µg/mL
same,MIC,[15],0.5 µg/mL
same,MIC,[16],≤ 8 ng/mL
same,MIC,[17],0.016 µg/mL
same,MIC,[18],0.25 µg/mL
same,MIC,[19],0.5 µg/mL
same,MIC,[20],0.5 µg/mL
same,MIC,[21],0.25 µg/mL
same,MIC,[22],16 µg/mL
same,MIC,[23],8 µg/mL
same,MIC,[24],0.25 µg/mL
same,MIC,[25],0.13 µg/mL
"CCO/N=C(\C(=O)N[C@@H]1C(=O)N2C(C(=O)[O-])=C(CSc3cc(N)nc(N)[n+]3CC)CS[C@H]12)c1nsc(N)n1 [Compound I-6, (6R,7R)-7-[(Z)-2-(5-amino-1,2,4-thiadiazol-3-yl)-2-(ethoxyimino)acetamido]-3-(2,6-diamino-3-ethylpyrimidinium-4-yl)thiomethyl-3-cephem-4-carboxylate]",MIC,[1],0.13 µg/mL
same,MIC,[2],0.13 µg/mL
same,MIC,[3],16 µg/mL
same,MIC,[4],0.031 µg/mL
same,MIC,[5],1 µg/mL
same,MIC,[6],8 µg/mL
same,MIC,[7],2 µg/mL
same,MIC,[8],0.5 µg/mL
same,MIC,[9],1 µg/mL
same,MIC,[10],0.031 µg/mL
same,MIC,[11],0.063 µg/mL
same,MIC,[12],0.063 µg/mL
same,MIC,[13],64 µg/mL
same,MIC,[14],0.5 µg/mL
same,MIC,[15],0.25 µg/mL
same,MIC,[16],≤ 8 ng/mL
same,MIC,[17],≤ 0.008 µg/mL
same,MIC,[18],0.5 µg/mL
same,MIC,[19],0.016 µg/mL
same,MIC,[20],0.25 µg/mL
same,MIC,[21],0.13 µg/mL
same,MIC,[22],> 128 µg/mL
same,MIC,[23],16 µg/mL
same,MIC,[24],0.13 µg/mL
same,MIC,[25],0.063 µg/mL
C[n+]1c(SCC2=C(C(=O)[O-])N3C(=O)[C@@H](NC(=O)/C(=N\OC(C)(C)C(=O)O)c4csc(N)n4)[C@H]3SC2)cc(N)nc1N [Compound I-1],MIC,[1],0.13 µg/mL
same,MIC,[2],0.13 µg/mL
same,MIC,[3],1 µg/mL
same,MIC,[4],0.31 µg/mL
same,MIC,[5],8 µg/mL
same,MIC,[6],4 µg/mL
same,MIC,[7],1 µg/mL
same,MIC,[8],0.5 µg/mL
same,MIC,[9],4 µg/mL
same,MIC,[10],0.031 µg/mL
same,MIC,[11],0.5 µg/mL
same,MIC,[12],0.016 µg/mL
same,MIC,[13],128 µg/mL
same,MIC,[14],2 µg/mL
same,MIC,[15],0.25 µg/mL
same,MIC,[16],≤ 8 ng/mL
same,MIC,[17],≤ 0.008 µg/mL
same,MIC,[18],2 µg/mL
same,MIC,[19],0.31 µg/mL
same,MIC,[20],0.13 µg/mL
same,MIC,[21],0.13 µg/mL
same,MIC,[22],> 128 µg/mL
same,MIC,[23],2 µg/mL
same,MIC,[24],0.25 µg/mL
same,MIC,[25],0.031 µg/mL
